Blank lines part the entries; values can stand above or below the compound they belong to.
System: 313798-341-R-J2-PDC spheroids, viability
Test: Anticancer human tumor 313798-341-R-J2-PDC patient-derived cervical squamous cell carcinoma cell line growth inhibition [PI3K]
Conditions: spheroids with HUVEC and MSC; for IC50: curve of first compound; for viability, T/C: stronger effect = lower value
In short: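 Complex 3D spheroids (cancer cells + endothelial HUVEC + mesenchymal stem cells); drug pairs of targeted agent x inavolisib/alpelisib/duvelisib/copanlisib; half-log series from ~Cmax, max 10 microM if Cmax unknown; endpoint viability.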

[1] = second compound 0.0316 µM, first compound 0.0316 µM
[2] = second compound 0.0316 µM, first compound 0.1 µM
[3] = second compound 0.1 µM, first compound 0.0316 µM
[4] = second compound 0.1 µM, first compound 0.1 µM
[5] = second compound 0.316 µM, first compound 0.0316 µM
[6] = second compound 0.316 µM, first compound 0.1 µM
[7] = second compound 1 µM, first compound 0.0316 µM
[8] = second compound 1 µM, first compound 0.1 µM
[9] = second compound 3.16 µM, first compound 0.0316 µM
[10] = second compound 3.16 µM, first compound 0.1 µM
[11] = second compound 10 µM, first compound 0.0316 µM
[12] = second compound 10 µM, first compound 0.1 µM
[13] = second compound 0.0316 µM, first compound 0.316 µM
[14] = second compound 0.0316 µM, first compound 1 µM
[15] = second compound 0.0316 µM, first compound 3.16 µM
[16] = second compound 0.0316 µM, first compound 10 µM
[17] = second compound 0.1 µM, first compound 0.316 µM
[18] = second compound 0.1 µM, first compound 1 µM
[19] = second compound 0.1 µM, first compound 3.16 µM
[20] = second compound 0.1 µM, first compound 10 µM
[21] = second compound 0.316 µM, first compound 0.316 µM
[22] = second compound 0.316 µM, first compound 1 µM
[23] = second compound 0.316 µM, first compound 3.16 µM
[24] = second compound 0.316 µM, first compound 10 µM
[25] = second compound 1 µM, first compound 0.316 µM
[26] = second compound 1 µM, first compound 1 µM
[27] = second compound 1 µM, first compound 3.16 µM
[28] = second compound 1 µM, first compound 10 µM
[29] = second compound 3.16 µM, first compound 0.316 µM
[30] = second compound 3.16 µM, first compound 1 µM
[31] = second compound 3.16 µM, first compound 3.16 µM
[32] = second compound 3.16 µM, first compound 10 µM
[33] = second compound 10 µM, first compound 0.316 µM
[34] = second compound 10 µM, first compound 1 µM
[35] = second compound 10 µM, first compound 3.16 µM
[36] = second compound 10 µM, first compound 10 µM
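Further: spheroids exposed to compounds for seven days.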
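Wherever viability, T/C is given: 100% = DMSO vehicle control viability.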

IC50 (second compound 0.0316 µM): 0.059 µM
IC50 (second compound 0.1 µM): 0.0596 µM
IC50 (second compound 0.316 µM): 0.0466 µM
IC50 (second compound 1 µM): 0.0255 µM
IC50 (second compound 3.16 µM): 0.00422 µM
IC50 (second compound 10 µM): < 0.000316 µM
Compound: CC(C)n1nc(-c2ccc3oc(N)nc3c2)c2c(N)ncnc21 + Cc1nc(NC(=O)N2CCCC2C(N)=O)sc1-c1ccnc(C(C)(C)C(F)(F)F)c1
viability, T/C (second compound 0.0316 µM, first compound 0.000316 µM): 91.6%
viability, T/C (second compound 0.0316 µM, first compound 0.001 µM): 96%
viability, T/C (second compound 0.0316 µM, first compound 0.00316 µM): 107%
viability, T/C (second compound 0.0316 µM, first compound 0.01 µM): 94.6%
viability, T/C [1]: 67.5%
viability, T/C [2]: 35.3%
viability, T/C (second compound 0.1 µM, first compound 0.000316 µM): 100%
viability, T/C (second compound 0.1 µM, first compound 0.001 µM): 93.6%
viability, T/C (second compound 0.1 µM, first compound 0.00316 µM): 96.9%
viability, T/C (second compound 0.1 µM, first compound 0.01 µM): 91.1%
viability, T/C [3]: 66.5%
viability, T/C [4]: 36.5%
viability, T/C (second compound 0.316 µM, first compound 0.000316 µM): 98.6%
viability, T/C (second compound 0.316 µM, first compound 0.001 µM): 91.6%
viability, T/C (second compound 0.316 µM, first compound 0.00316 µM): 97.8%
viability, T/C (second compound 0.316 µM, first compound 0.01 µM): 76.8%
viability, T/C [5]: 56.6%
viability, T/C [6]: 39%
viability, T/C (second compound 1 µM, first compound 0.000316 µM): 92%
viability, T/C (second compound 1 µM, first compound 0.001 µM): 84.2%
viability, T/C (second compound 1 µM, first compound 0.00316 µM): 77.3%
viability, T/C (second compound 1 µM, first compound 0.01 µM): 64.4%
viability, T/C [7]: 46%
viability, T/C [8]: 30%
viability, T/C (second compound 3.16 µM, first compound 0.000316 µM): 63.9%
viability, T/C (second compound 3.16 µM, first compound 0.001 µM): 55.1%
viability, T/C (second compound 3.16 µM, first compound 0.00316 µM): 54.2%
viability, T/C (second compound 3.16 µM, first compound 0.01 µM): 43.5%
viability, T/C [9]: 34.5%
viability, T/C [10]: 21.4%
viability, T/C (second compound 10 µM, first compound 0.000316 µM): 35.2%
viability, T/C (second compound 10 µM, first compound 0.001 µM): 32.2%
viability, T/C (second compound 10 µM, first compound 0.00316 µM): 30.9%
viability, T/C (second compound 10 µM, first compound 0.01 µM): 25.1%
viability, T/C [11]: 23.9%
viability, T/C [12]: 14.4%

IC50 (second compound 0.0316 µM): 5.81 µM
IC50 (second compound 0.1 µM): 5.8 µM
IC50 (second compound 0.316 µM): 5.32 µM
IC50 (second compound 1 µM): 4.22 µM
IC50 (second compound 3.16 µM): 1.71 µM
IC50 (second compound 10 µM): < 0.0316 µM
Compound: CC1(C)CCC(CN2CCN(c3ccc(C(=O)NS(=O)(=O)c4ccc(NCC5CCOCC5)c([N+](=O)[O-])c4)c(Oc4cnc5[nH]ccc5c4)c3)CC2)=C(c2ccc(Cl)cc2)C1 + Cc1nc(NC(=O)N2CCCC2C(N)=O)sc1-c1ccnc(C(C)(C)C(F)(F)F)c1
viability, T/C [1]: 102%
viability, T/C [2]: 115%
viability, T/C [13]: 104%
viability, T/C [14]: 101%
viability, T/C [15]: 84.4%
viability, T/C [16]: 19.3%
viability, T/C [3]: 115%
viability, T/C [4]: 101%
viability, T/C [17]: 110%
viability, T/C [18]: 97.9%
viability, T/C [19]: 85%
viability, T/C [20]: 19.8%
viability, T/C [5]: 111%
viability, T/C [6]: 103%
viability, T/C [21]: 112%
viability, T/C [22]: 107%
viability, T/C [23]: 75.7%
viability, T/C [24]: 18.7%
viability, T/C [7]: 91.5%
viability, T/C [8]: 104%
viability, T/C [25]: 97.2%
viability, T/C [26]: 90.7%
viability, T/C [27]: 60.8%
viability, T/C [28]: 17.9%
viability, T/C [9]: 69.3%
viability, T/C [10]: 66.7%
viability, T/C [29]: 63.9%
viability, T/C [30]: 59.3%
viability, T/C [31]: 40.2%
viability, T/C [32]: 18.3%
viability, T/C [11]: 38.6%
viability, T/C [12]: 34.1%
viability, T/C [33]: 38.1%
viability, T/C [34]: 35.7%
viability, T/C [35]: 33%
viability, T/C [36]: 15.1%

IC50 (second compound 0.0316 µM): 5.85 µM
IC50 (second compound 0.1 µM): 5.6 µM
IC50 (second compound 0.316 µM): 5.65 µM
IC50 (second compound 1 µM): 4.52 µM
IC50 (second compound 3.16 µM): 3.14 µM
IC50 (second compound 10 µM): < 0.0316 µM
Compound: CCCS(=O)(=O)Nc1ccc(F)c(C(=O)c2c[nH]c3ncc(-c4ccc(Cl)cc4)cc23)c1F + Cc1nc(NC(=O)N2CCCC2C(N)=O)sc1-c1ccnc(C(C)(C)C(F)(F)F)c1
viability, T/C [1]: 110%
viability, T/C [2]: 92%
viability, T/C [13]: 93.7%
viability, T/C [14]: 103%
viability, T/C [15]: 98%
viability, T/C [16]: 8.19%
viability, T/C [3]: 100%
viability, T/C [4]: 105%
viability, T/C [17]: 98.7%
viability, T/C [18]: 106%
viability, T/C [19]: 90.7%
viability, T/C [20]: 8.86%
viability, T/C [5]: 99.6%
viability, T/C [6]: 111%
viability, T/C [21]: 90.8%
viability, T/C [22]: 105%
viability, T/C [23]: 89.6%
viability, T/C [24]: 10.9%
viability, T/C [7]: 93.2%
viability, T/C [8]: 90.1%
viability, T/C [25]: 88.7%
viability, T/C [26]: 83.9%
viability, T/C [27]: 70.7%
viability, T/C [28]: 6.27%
viability, T/C [9]: 62%
viability, T/C [10]: 56.8%
viability, T/C [29]: 56.5%
viability, T/C [30]: 58.7%
viability, T/C [31]: 49.8%
viability, T/C [32]: 6.48%
viability, T/C [11]: 33.5%
viability, T/C [12]: 32.5%
viability, T/C [33]: 38.7%
viability, T/C [34]: 36.4%
viability, T/C [35]: 31.2%
viability, T/C [36]: 5.01%

IC50 (second compound 0.0316 µM): > 10 µM
IC50 (second compound 0.1 µM): > 10 µM
IC50 (second compound 0.316 µM): > 10 µM
IC50 (second compound 1 µM): > 10 µM
IC50 (second compound 3.16 µM): > 10 µM
IC50 (second compound 10 µM): < 0.0316 µM
Compound: C[C@@H](NC(=O)c1ncnc(N)c1Cl)c1ncc(C(=O)Nc2cc(C(F)(F)F)c(Cl)cn2)s1 + Cc1nc(NC(=O)N2CCCC2C(N)=O)sc1-c1ccnc(C(C)(C)C(F)(F)F)c1
viability, T/C [1]: 106%
viability, T/C [2]: 93.3%
viability, T/C [13]: 103%
viability, T/C [14]: 101%
viability, T/C [15]: 108%
viability, T/C [16]: 107%
viability, T/C [3]: 104%
viability, T/C [4]: 112%
viability, T/C [17]: 92.8%
viability, T/C [18]: 111%
viability, T/C [19]: 115%
viability, T/C [20]: 113%
viability, T/C [5]: 111%
viability, T/C [6]: 121%
viability, T/C [21]: 104%
viability, T/C [22]: 105%
viability, T/C [23]: 110%
viability, T/C [24]: 109%
viability, T/C [7]: 104%
viability, T/C [8]: 92%
viability, T/C [25]: 89.7%
viability, T/C [26]: 101%
viability, T/C [27]: 98.6%
viability, T/C [28]: 88%
viability, T/C [9]: 63.7%
viability, T/C [10]: 60%
viability, T/C [29]: 69.2%
viability, T/C [30]: 71.1%
viability, T/C [31]: 64.9%
viability, T/C [32]: 58.4%
viability, T/C [11]: 31.8%
viability, T/C [12]: 35.1%
viability, T/C [33]: 38.2%
viability, T/C [34]: 33.4%
viability, T/C [35]: 39.6%
viability, T/C [36]: 39.5%

Reference: PubChem BioAssay AID1963982 (Molecular Pharmacology Branch, DTP, NCI, 2024)
